Assay results as given in BindingDB's records for doi:10.1016/s0960-894x(03)00356-1 (Abbott Laboratories, 2003).

Target: Histamine H3 receptor (Rattus norvegicus) (UniProt Q9QYN8)
Assay: Compound was tested for its binding affinity towards rat cortical Histamine H3L receptor

Histamine H3 receptor (Rattus norvegicus), sequence (Q9QYN8 whole entry, looked up): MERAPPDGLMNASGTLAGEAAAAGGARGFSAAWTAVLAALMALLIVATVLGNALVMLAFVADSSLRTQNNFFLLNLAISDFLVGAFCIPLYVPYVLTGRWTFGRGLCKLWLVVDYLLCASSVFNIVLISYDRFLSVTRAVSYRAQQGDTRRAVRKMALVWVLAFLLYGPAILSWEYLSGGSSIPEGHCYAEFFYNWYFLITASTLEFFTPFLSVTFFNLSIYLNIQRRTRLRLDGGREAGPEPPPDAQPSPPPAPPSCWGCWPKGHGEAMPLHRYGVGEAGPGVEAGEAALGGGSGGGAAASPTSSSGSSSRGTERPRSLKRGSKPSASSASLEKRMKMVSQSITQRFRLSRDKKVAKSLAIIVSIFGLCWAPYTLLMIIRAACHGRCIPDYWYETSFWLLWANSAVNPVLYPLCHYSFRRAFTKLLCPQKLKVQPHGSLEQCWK

## CN(C)CCCNc1c2c(nc3c1CCCC3)CCCCC2
  Ki: 158 nM
